Experiments:
Assay in all cases: Melanoma cytotoxicity assay (resazurin)
Format in all cases: cell-based
SK-MEL-28 = details: for SK-MEL-28 (% inhibition): SK-MEL-28 melanoma cells, 24 hours with compound, resazurin, concentration not given; for SK-MEL-28 (% viability): human, 24 h
Description: (§1) Cytotoxicity Assay: Melanoma cells (˜4000 cells in each well) were incubated in a 96 well plates at 37° C. in 5% CO2 for 24 hours. Compounds were added in triplicates and the plate was further incubated for 24 hours. DMSO and dacarbazine were added as technical and positive controls respectively. Next day resazurin was added and the plate was further incubated for 6 hours followed by reading the plate at 544 nm (excitation) and 590 nm (emission) using BMG Labtech Fluostar Optima plate reader. IC50 values were determined by using Graphpad Prism.
(§2) On day 1, the cell line trypsinized and centrifuged to form cell pellet. The pellet was diluted in media, then counted using Countess automated cell counter. Approximately 4000 cells (198 uL) per well plated in […]. A control well of 200 uL growth media was also prepared. Wells closest to plate perimeter were filled with 200 uL PBS to prevent inner well evaporation. The 96 well plates are incubated in 37° C. incubator at 5% CO2 for 24 hours.
(§3) On day 2, compounds were added (in triplicate) along with DMSO/Dacarbazine controls (2 uL) added to bring wells to volume of 200 μL. The 96 well plates are incubated in 37° C. incubator at 5% CO2 for 24 hours.
(§4) On day 3, 40 μL of 0.15 mg/ml reszurin solution added to wells. Samples were placed in a 37° C. incubator at 5% CO2 for 6 hours. Excitation and emission for fluorescence measured at 544 nm and 590 nm using BMG Labtech Fluostar Optima plate reader
(§5) Percent viability determined by taking average of each triplicate well fluorescence and subtracting GM well reading to remove the background signal. This difference is then divided by the average of the negative control (DMSO) wells to determine percent viability.
(§6) IC50s were determined by using cereal dilution of compound to determine viability. Viabilities and concentration of cells are analyzed in Graphpad Prism by creating sigmoidal curve graph, which will determine the IC50 concentration.
(§7) We analyzed the ability of the thiazole-androstane derivatives to inhibit growth in various melanoma cell lines. The growth inhibition against melanoma cell lines of various compound is shown below in Tables 19 and 20. Inhibition results are reported as the IC50 concentration in μM of the indicated compound or as the percent viability […] of the indicated compound. NA=not available.

SK-MEL-5 = SK-MEL-5 melanoma cells, 24 hours with compound, resazurin; concentration not given
Description: as §1, §2, §3, §4, §5, §6, §7

SK-MEL-25 = SK-MEL-25 melanoma cells, 24 hours with compound, resazurin; concentration not given
Description: as §1, §2, §3, §4, §5, §6, §7

SMILES	SK-MEL-28 (% inhibition) (SK-MEL-28)	SK-MEL-5 (% inhibition) (SK-MEL-5)	SK-MEL-25 (% inhibition) (SK-MEL-25)	SK-MEL-28 (% viability) (SK-MEL-28)
C[C@]12CCc3sc(Nc4ccccc4)nc3C1=CC[C@@H]1[C@@H]2CC[C@]2(C)C(=O)CC[C@@H]12 [IIa.7, (1S,2R,13R,14S,18S)-7-anilino-2,18-dimethyl-6-thia-8-azapentacyclo[11.7.0.02,10.05,9.014,18]icosa-5(9),7,10-trien-17-one]	43%	–	–	–
C[C@]12CCc3sc(Nc4ccccc4F)nc3C1=CC[C@@H]1[C@@H]2CC[C@]2(C)C(=O)CC[C@@H]12 [IIa.33, (1S,2R,13R,14S,18S)-7-(2-fluoroanilino)-2,18-dimethyl-6-thia-8-azapentacyclo[11.7.0.02,10.05,9.014,18]icosa-5(9),7,10-trien-17-one]	66%	87%	77%	–
COc1ccc(Cl)cc1Nc1nc2c(s1)CC[C@@]1(C)C2=CC[C@@H]2[C@@H]1CC[C@]1(C)C(=O)CC[C@@H]21 [IIa.20, (1S,2R,13R,14S,18S)-7-(5-chloro-2-methoxy-anilino)-2,18-dimethyl-6-thia-8-azapentacyclo[11.7.0.02,10.05,9.014,18]icosa-5(9),7,10-trien-17-one]	95%	70%	83%	–
C[C@]12CC[C@H]3[C@@H](CC=C4c5sc(-c6ccc(Br)cc6)nc5CC[C@@]43C)[C@@H]1CC[C@@H]2O [III.19, (1S,2R,13R,14S,17S,18S)-7-(4-bromophenyl)-2,18-dimethyl-8-thia-6-azapentacyclo[11.7.0.02,10.05,9.014,18]icosa-5(9),6,10-trien-17-ol]	–	–	–	58%
C[C@]12CCc3sc(NCc4ccccc4)nc3C1=CC[C@@H]1[C@@H]2CC[C@]2(C)C(=O)CC[C@@H]12 [IIa.5, (1S,2R,13R,14S,18S)-7-(benzylamino)-2,18-dimethyl-6-thia-8-azapentacyclo[11.7.0.02,10.05,9.014,18]icosa-5(9),7,10-trien-17-one]	97%	46%	6%	–
C[C@]12CC[C@H]3[C@@H](CC=C4c5sc(-c6ccccn6)nc5CC[C@@]43C)[C@@H]1CC[C@@H]2O [III.4, (1S,2R,13R,14S,17S,18S)-2,18-dimethyl-7-(2-pyridyl)-8-thia-6-azapentacyclo[11.7.0.02,10.05,9.014,18]icosa-5(9),6,10-trien-17-ol]	–	–	–	86%
CCNc1nc2c(s1)CC[C@@]1(C)C2=CC[C@@H]2[C@@H]1CC[C@]1(C)C(=O)CC[C@@H]21 [IIa.30, (1S,2R,13R,14S,18S)-7-(ethylamino)-2,18-dimethyl-6-thia-8-azapentacyclo[11.7.0.02,10.05,9.014,18]icosa-5(9),7,10-trien-17-one]	67%	26%	4%	–
C[C@]12CC[C@H]3[C@@H](CC=C4c5sc(-c6ccccc6O)nc5CC[C@@]43C)[C@@H]1CC[C@@H]2O [III.6, (1S,2R,13R,14S,17S,18S)-7-(2-hydroxyphenyl)-2,18-dimethyl-8-thia-6-azapentacyclo[11.7.0.02,10.05,9.014,18]icosa-5(9),6,10-trien-17-ol]	–	–	–	32%
C[C@]12CCc3sc(Nc4ccccc4[N+](=O)[O-])nc3C1=CC[C@@H]1[C@@H]2CC[C@]2(C)C(=O)CC[C@@H]12 [IIa.13, (1S,2R,13R,14S,18S)-2,18-dimethyl-7-(2-nitroanilino)-6-thia-8-azapentacyclo[11.7.0.02,10.05,9.014,18]icosa-5(9),7,10-trien-17-one]	6%	36%	58%	–
Cc1nc2c(s1)C1=CC[C@H]3[C@@H]4CC[C@H](O)[C@@]4(C)CC[C@@H]3[C@@]1(C)CC2 [III.1, (1S,2R,13R,14S,17S,18S)-2,7,18-trimethyl-8-thia-6-azapentacyclo[11.7.0.02,10.05,9.014,18]icosa-5(9),6,10-trien-17-ol]	–	–	–	58%
C[C@]12CCc3sc(NCCCN4CCOCC4)nc3C1=CC[C@@H]1[C@@H]2CC[C@]2(C)C(=O)CC[C@@H]12 [IIa.4, (1S,2R,13R,14S,18S)-2,18-dimethyl-7-(3-morpholinopropylamino)-6-thia-8-azapentacyclo[11.7.0.02,10.05,9.014,18]icosa-5(9),7,10-trien-17-one]	–	74%	66%	–
C[C@]12CCc3sc(Nc4cccc(C(=O)O)c4)nc3C1=CC[C@@H]1[C@@H]2CC[C@]2(C)C(=O)CC[C@@H]12 [IIa.34, 3-[[(1S,2R,13R,14S,18S)-2,18-dimethyl-17-oxo-6-thia-8-azapentacyclo[11.7.0.02,10.05,9.014,18]icosa-5(9),7,10-trien-7-yl]amino]benzoic acid]	73%	80%	59%	–
C[C@]12CCc3sc(Nc4ccc(C(=O)O)cc4)nc3C1=CC[C@@H]1[C@@H]2CC[C@]2(C)C(=O)CC[C@@H]12 [IIa.23, 4-[[(1S,2R,13R,14S,18S)-2,18-dimethyl-17-oxo-6-thia-8-azapentacyclo[11.7.0.02,10.05,9.014,18]icosa-5(9),7,10-trien-7-yl]amino]benzoic acid]	78%	43%	71%	–
COc1ccccc1Nc1nc2c(s1)CC[C@@]1(C)C2=CC[C@@H]2[C@@H]1CC[C@]1(C)C(=O)CC[C@@H]21 [IIa.15, (1S,2R,13R,14S,18S)-7-(2-methoxyanilino)-2,18-dimethyl-6-thia-8-azapentacyclo[11.7.0.02,10.05,9.014,18]icosa-5(9),7,10-trien-17-one]	13%	76%	67%	–
C[C@]12CCc3nc(Nc4ccc(F)cc4)sc3C1=CC[C@@H]1[C@@H]2CC[C@]2(C)C(=O)CC[C@@H]12 [IIa.9, (1S,2R,13R,14S,18S)-7-(4-fluoroanilino)-2,18-dimethyl-8-thia-6-azapentacyclo[11.7.0.02,10.05,9.014,18]icosa-5(9),6,10-trien-17-one]	90%	58%	61%	–
CCCCNC1=NC2C3=CC[C@@H]4[C@H](CC[C@]5(C)C(=O)CC[C@@H]45)[C@@]3(C)CCC2S1 (stereo partly drawn) [IIa.31, (1S,2R,13R,14S,18S)-7-(butylamino)-2,18-dimethyl-6-thia-8-azapentacyclo[11.7.0.02,10.05,9.014,18]icosa-7,10-dien-17-one]	93%	69%	74%	–
C[C@]12CCc3sc(N)nc3C1=CC[C@@H]1[C@@H]2CC[C@]2(C)C(=O)CC[C@@H]12 [IIa.1, (1S,2R,13R,14S,18S)-7-amino-2,18-dimethyl-6-thia-8-azapentacyclo[11.7.0.02,10.05,9.014,18]icosa-5(9),7,10-trien-17-one]	1%	29%	–	–
C[C@]12CC[C@H]3[C@@H](CC=C4c5sc(-c6ccc(O)c(O)c6)nc5CC[C@@]43C)[C@@H]1CC[C@@H]2O [III.7, 4-[(1S,2R,13R,14S,17S,18S)-17-hydroxy-2,18-dimethyl-8-thia-6-azapentacyclo[11.7.0.02,10.05,9.014,18]icosa-5(9),6,10-trien-7-yl]benzene-1,2-diol]	–	–	–	11%
COc1ccc(OC)c(Nc2nc3c(s2)CC[C@@]2(C)C3=CC[C@@H]3[C@@H]2CC[C@]2(C)C(=O)CC[C@@H]32)c1 [IIa.16, (1S,2R,13R,14S,18S)-7-(2,5-dimethoxyanilino)-2,18-dimethyl-6-thia-8-azapentacyclo[11.7.0.02,10.05,9.014,18]icosa-5(9),7,10-trien-17-one]	86%	81%	70%	–
CC(=O)Nc1nc2c(s1)C1=CC[C@@H]3[C@H](CC[C@]4(C)C(=O)CC[C@@H]34)[C@@]1(C)CC2 [IIb.1, N-[(1S,2R,13R,14S,18S)-2,18-dimethyl-17-oxo-8-thia-6-azapentacyclo[11.7.0.02,10.05,9.014,18]icosa-5(9),6,10-trien-7-yl]acetamide]	16%	5%	31%	–
C[C@]12CCc3sc(Nc4ncccn4)nc3C1=CC[C@@H]1[C@@H]2CC[C@]2(C)C(=O)CC[C@@H]12 [IIa.22, (1S,2R,13R,14S,18S)-2,18-dimethyl-7-(pyrimidin-2-ylamino)-6-thia-8-azapentacyclo[11.7.0.02,10.05,9.014,18]icosa-5(9),7,10-trien-17-one]	4%	15%	3%	–
